Data on 14 molecules can be found in patent publication US20240299360A1, “ADAMTS INHIBITORS, PREPARATION METHODS AND MEDICINAL USES THEREOF” (Jiangsu Hengrui Pharmaceuticals Co., Ltd., priority 2020, published 2024).

Experiment [1] addresses ADAMTS-4 recombinant protein (Homo sapiens (Human), UniProt O75173). In words: In vitro fluorescence (FRET-peptide) enzymatic assay of ADAMTS-4 activity. Type of experiment: biochemical. As to conditions: FRET peptide substrate 15 μM, 10 nM enzyme, 37° C. 3 hours. The method, then:
(§1) A FRET (fluorescence resonance energy transfer) peptide was cleaved by recombinant ADAMTS-4 or ADAMTS-5 proteins into two separate fragments resulting in an increase of fluorescence signal which was quantified. The peptide was 5-FAM-[…](5-TAMRA)K-NH2, customized from ANASPEC. ADAMTS-4 recombinant protein (catalog #4307-AD) and ADAMTS-5 recombinant protein (catalog #2198-AD) were purchased from R&D Systems.
(§2) An assay buffer containing 50 mM HEPES pH 7.5, 100 mM NaCl, 5 mM CaCl2, 0.1% CHAPS and 5% Glycerol was prepared. A volume of 2.5 μl of compound in the assay buffer was dispensed to a 384-well plate, and 2.5 μl of ADAMTS-4 or ADAMTS-5 protein (final concentration in the reaction was 10 nM) was added. The compounds and proteins were pre-incubated at room temperature for 15 minutes. Then, 5 μl of substrate was added to each well. The final substrate concentrations for ADAMTS-4 and ADAMTS-5 were 15 μM and 8 μM, respectively. The fluorescence signal in each well was determined, after incubation at 37° C. for 3 hours, on a TECAN plate reader (Excitation, 490 nm; Emission, 520 nm).
(§3) The data was inputted into GraphPad Prism, and the IC50 values were calculated using function “log (inhibitor) vs. response—Variable slope (four parameters)”. (See Table 1)

The target in experiment [2] is T1, ADAMTS-5 recombinant protein (Homo sapiens (Human), UniProt Q9UNA0). The experiment can be described thus: In vitro fluorescence (FRET-peptide) enzymatic assay of ADAMTS-5 activity. The experiment is classed as biochemical. The settings on record: FRET peptide substrate 8 μM, 10 nM enzyme, 37° C. 3 hours. How it is done:
as §1, §2, §3

The target of experiment [3] is T1, ADAMTS-5 recombinant protein. The experiment can be described thus: In vitro ELISA of ADAMTS-5 activity (Aggrecan-IGD enzymatic assay). The experiment is classed as biochemical. As to conditions: aggrecan-IGD substrate, ARGSVIL-peptide ELISA, 37° C. 45 minutes. How it is done:
In this assay, the enzymatic activity of recombinant ADAMTS-5 protein (catalog #2198-AD, R&D Systems) was assayed with a protein substrate, the aggrecan IGD protein. The aggrecan IGD protein is a polypeptide connecting human aggrecan globular domains 1 and 2 (T331-G458) expressed in E. Coli with a C-terminal His-tag (catalog #30411000, BIOTEZ). The enzymatic product ARGSVIL-peptide was detected using an ELISA kit from BioTEZ (catalog #30510111).
An assay buffer containing 50 mM HEPES pH 7.5, 100 mM NaCl, 5 mM CaCl2), 0.1% CHAPS and 5% Glycerol was prepared. Recombinant ADAMTS-5 protein was diluted to 0.3 nM in the assay buffer. Ten μl of […] and 10 μl of compound solution was transferred to each well of a 96-well plate and incubated at room temperature for 15 minutes. Substrate aggrecan-IGD was diluted to 100 nM with the assay buffer and 20 μl was added to each well. The plate was incubated at 37° C. for 45 minutes. After incubation, the newly generated epitope ARGSVIL-peptides were measured using the Aggrecanase Activity ELISA Assay Kit following the manufacturer's instructions. Then, 100 μl of stop solution was added and the absorbance of each well was read at 450 nm, using […] as reference on a TECAN plate reader.
A standard curve of the ELISA assay was generated in GraphPad Prism using Sigmoidal 4PL function and the corresponding peptide concentrations were calculated based on the standard curve. The IC50 values were calculated using function “log (inhibitor) vs. response—Variable slope (four parameters)”. (See Table 2).
(In an ELISA, binding on a coated surface is turned into a signal by an enzyme label.)

Experiment [4] has as its system mouse femoral head cartilage. The experiment can be described thus: Mouse explant assay (IL-1α induced GAG release). The experiment is classed as cell-based. The settings on record: inhibition of GAG release, IL-1α 1 ng/ml, 72 hours; for inhibition at 2 µM: compound 2 μM; for inhibition at 20 µM: compound 20 μM. The method, then: In this assay, fresh mouse femoral head cartilage was treated with IL-1α protein (Sigma-Aldrich, catalog #12778) in culture media, which induces the cartilage catabolism. Then, the GAGs attached to the cleaved aggrecan fragments (released in the media) and the GAGs attached to the intact aggrecan were measured by dimethylmethylene blue dye in the Glycosaminoglycans Assay Kit (Chondrex, catalog #6022).
Femoral head cartilage samples were isolated from mice (25 days old, male, C57BL/6, from Charles River Lab) and put into 2.0 ml tubes filled-up with media (DMEM, 10% FBS, 4 mM Glutamine, penicillin-streptomycin, 20 mM HEPES). Two hundred μl of media without FBS was added to each well of a 48-well plate, and one piece of cartilage was transferred to a well in the plate. Then the media was aspirated, and compounds and IL-1α protein were added to the plate in a total volume of 400 μl of fresh media without FBS. The final concentration of IL-1α was 1 ng/ml. The plate was incubated at 37° C. for 72 hours in a humidified incubator with 5% CO2 supply.
The supernatant was transferred to a 1.5 ml tube and kept at −20° C. Each cartilage sample was transferred to another 1.5 ml tube containing 400 μl of freshly made papain solution. The papain solution contained 125 μg/ml papain (Sigma-Aldrich, catalog #P3125), 0.1 M sodium acetate (Sigma-Aldrich, catalog #S7899), pH 5.5 and 5 mM EDTA and 5 mM L-cysteine-HCl (Sigma-Aldrich, catalog #C7880). The cartilage samples were kept rocking in a 60° C. water bath for 24 hours. The lysates were vortexed for 10 seconds and spinned at 10,000 rpm for 2 minutes.
Both the supernatant and the lysate samples were diluted with PBS and mixed with 100 μl of dye from the Glycosaminoglycans Assay Kit. The optical density from each well was determined with a TECAN plate reader set to a wavelength of 525 nm.
The concentrations of GAGs in the supernatant and lysates were determined based on the standard curve with a dose range of chondroitin sulfate provided in the kit. The percentage of GAG release was calculated as the following
The test compound effect was expressed as the percent of inhibition using the following formula: […]

Chain of ADAMTS-4 recombinant protein (O75173 213-685): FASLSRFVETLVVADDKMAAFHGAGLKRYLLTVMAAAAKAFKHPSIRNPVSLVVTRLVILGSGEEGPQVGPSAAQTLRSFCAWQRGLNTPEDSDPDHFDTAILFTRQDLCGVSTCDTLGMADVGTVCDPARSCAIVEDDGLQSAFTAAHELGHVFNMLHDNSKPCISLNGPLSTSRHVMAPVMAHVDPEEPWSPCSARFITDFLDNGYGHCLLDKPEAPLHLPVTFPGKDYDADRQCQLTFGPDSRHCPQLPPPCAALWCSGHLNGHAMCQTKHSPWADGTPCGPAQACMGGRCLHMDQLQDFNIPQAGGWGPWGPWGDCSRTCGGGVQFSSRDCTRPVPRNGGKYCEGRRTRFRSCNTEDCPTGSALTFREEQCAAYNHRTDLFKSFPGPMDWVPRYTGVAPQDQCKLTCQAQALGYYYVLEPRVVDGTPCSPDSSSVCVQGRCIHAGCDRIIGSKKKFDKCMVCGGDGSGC
T1 sequence (Q9UNA0 262-622): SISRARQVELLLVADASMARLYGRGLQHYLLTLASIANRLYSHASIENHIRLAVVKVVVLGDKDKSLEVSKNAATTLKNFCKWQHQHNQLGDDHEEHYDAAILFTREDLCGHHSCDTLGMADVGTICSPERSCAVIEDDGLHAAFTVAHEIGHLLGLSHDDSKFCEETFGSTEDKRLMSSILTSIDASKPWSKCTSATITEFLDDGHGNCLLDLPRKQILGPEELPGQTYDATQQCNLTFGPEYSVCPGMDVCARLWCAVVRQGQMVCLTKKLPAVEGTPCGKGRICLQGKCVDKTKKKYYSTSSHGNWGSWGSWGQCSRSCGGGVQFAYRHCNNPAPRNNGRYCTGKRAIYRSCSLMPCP

The IC50 is the concentration that inhibits the measured activity by half. For orientation: inhibition means the drop in the measured response relative to a control, in per cent. A higher inhibition goes with a strong effect. For the molecule `O=C1NC(=O)[C@](CCC(=O)N2Cc3ccc(C(F)(F)F)cc3C2)(C2CC2)N1` [Example 1, (S)-5-cyclopropyl-5-(3-oxo-3-(5-(trifluoromethyl)isoindolin-2-yl)propyl)imidazolidine-2,4-dione], the figures for the IC50 in experiment [1], in experiment [2] and in experiment [3] were 0.06 µM, 0.088 µM and 0.14 µM, respectively. In addition, in experiment [4], testing at 2 µM gave an inhibition of 27%. In experiment [4], this molecule gave an inhibition at 20 µM of 61%.
As to `COc1ccc2c(c1)CCN(C(=O)CC[C@@]1(C3CC3)NC(=O)NC1=O)CC2` [Example 5, (S)-5-cyclopropyl-5-(3-(7-methoxy-4,5-dihydro-1H-benzo [d]azepin-3 (2H)-yl)-3-oxopropyl)imidazolidine-2,4-dione], the IC50 amounted to 0.046 µM in experiment [1], 0.073 µM in experiment [2] and 0.24 µM in experiment [3]. In experiment [4], this molecule came in with an inhibition at 2 µM of 19%. The molecule also returned an inhibition at 20 µM in experiment [4] of 51%.
In the case of `CC1CN(C(=O)CC[C@@]2(C3CC3)NC(=O)NC2=O)CCc2ccc(Cl)cc21` (stereo partly drawn) [Example 8, (5S)-5-(3-(8-chloro-1-methyl-4,5-dihydro-1H-benzo[d]azepin-3 (2H)-yl)-3-oxopropyl)-5-cyclopropylimidazolidine-2,4-dione], the results for the IC50 in experiment [1], in experiment [2] and in experiment [3] were 0.066 µM, 0.053 µM and 0.13 µM, respectively. The inhibition at 2 µM in experiment [4] amounted to 22%. In experiment [4], the inhibition at 20 µM came out at 63%.
With `O=C1NC(=O)[C@](CCC(=O)N2CCc3ccccc3CC2)(C2CC2)N1` [Example 9, (S)-5-cyclopropyl-5-(3-(4,5-dihydro-1H-benzo[d]azepin-3 (2H)-yl)-3-oxopropyl)imidazolidine-2,4-dione], the IC50 in experiment [1] was found to be 0.042 µM; in experiment [2] it was 0.037 µM; in experiment [3], 0.056 µM. In experiment [4], this molecule had an inhibition at 2 µM of 22%. The same molecule returned an inhibition at 20 µM in experiment [4] of 55%.
Turning to `O=C1NC(=O)[C@](CCC(=O)N2Cc3cc(Cl)c(Cl)cc3C2)(C2CC2)N1` [Example 20, (S)-5-cyclopropyl-5-(3-(5,6-dichloroisoindolin-2-yl)-3-oxopropyl)imidazolidine-2,4-dione], the IC50 in experiment [1] was 0.022 µM. The IC50 in experiment [2] is 0.037 µM. In experiment [4], this molecule returned an inhibition at 2 µM of 67% and an inhibition at 20 µM of 100%.
Consider `C[C@H]1CN(C(=O)CC[C@@]2(C3CC3)NC(=O)NC2=O)CCc2ccc(Cl)cc21` [Example 21, (S)-5-(3-((R)-8-chloro-1-methyl-1,2,4,5-tetrahydro-3H-benzo[d]azepin-3-yl)-3-oxopropyl)-5-cyclopropylimidazolidine-2,4-dione], for which the IC50 in experiment [1] is 0.02 µM; in experiment [2], 0.016 µM. In experiment [4], this molecule returned an inhibition at 2 µM of 39%. The molecule also yielded an inhibition at 20 µM in experiment [4] of 100%.
With `O=C1NC(=O)[C@](CCC(=O)N2Cc3cc(Cl)c(C(F)(F)F)cc3C2)(C2CC2)N1` [Example 40, (S)-5-(3-(5-chloro-6-(trifluoromethyl)isoindolin-2-yl)-3-oxopropyl)-5-cyclopropylimidazolidine-2,4-dione], the IC50 in experiment [1] amounted to 0.042 µM; in experiment [2], 0.025 µM; in experiment [3] it was 0.092 µM. The inhibition at 2 µM in experiment [4] is 2%. In addition, testing at 20 µM in experiment [4] gave an inhibition of 52%.
On the same counts, the results for `O=C1NC(=O)C(CC(CO)C(=O)N2Cc3cc(Cl)c(Cl)cc3C2)(C2CC2)N1` (stereo not drawn) [Example 42, 5-cyclopropyl-5-(3-(5,6-dichloroisoindolin-2-yl)-2-(hydroxymethyl)-3-oxopropyl)imidazolidine-2,4-dione] are 0.011 µM, 0.014 µM, 0.017 µM, 51% and 92%.
With `Cn1ccnc1C1(CCC(=O)N2Cc3cc(Cl)c(C(F)(F)F)cc3C2)NC(=O)NC1=O` (stereo not drawn) [Example 73, 5-(3-(5-chloro-6-(trifluoromethyl)isoindolin-2-yl)-3-oxopropyl)-5-(1-methyl-1H-imidazol-2-yl)imidazolidine-2,4-dione], the IC50 in experiment [1] was 0.061 µM; in experiment [2] it was 0.027 µM; in experiment [3], 0.047 µM.
For the molecule `Cc1cc(C2(CCC(=O)N3Cc4cc(Cl)c(C(F)(F)F)cc4C3)NC(=O)NC2=O)no1` (stereo not drawn) [Example 75, 5-(3-(5-chloro-6-(trifluoromethyl)isoindolin-2-yl)-3-oxopropyl)-5-(5-methylisoxazol-3-yl)imidazolidine-2,4-dione], the IC50 is 0.12 µM in experiment [1], 0.075 µM in experiment [2] and 0.11 µM in experiment [3].
As to `Cc1cc(C2(CCC(=O)N3Cc4cc(Cl)c(C(F)(F)F)cc4C3)NC(=O)NC2=O)n[nH]1` (stereo not drawn) [Example 78, 5-(3-(5-chloro-6-(trifluoromethyl)isoindolin-2-yl)-3-oxopropyl)-5-(5-methyl-1H-pyrazol-3-yl)imidazolidine-2,4-dione], the results for the IC50 in experiment [1], in experiment [2] and in experiment [3] were 0.16 µM, 0.057 µM and 0.076 µM, respectively.
`O=C1NC(=O)C(CCC(=O)N2Cc3cc(Cl)c(C(F)(F)F)cc3C2)(c2ncccn2)N1` (stereo not drawn) [Example 79, 5-(3-(5-chloro-6-(trifluoromethyl)isoindolin-2-yl)-3-oxopropyl)-5-(pyrimidin-2-yl)imidazolidine-2,4-dione]: the figures for the IC50 in experiment [1], in experiment [2] and in experiment [3] were 0.25 µM, 0.11 µM and 0.21 µM, respectively.
For `[2H]C1([2H])c2cc(Cl)c(Cl)cc2C([2H])([2H])N1C(=O)CC[C@@]1(C2CC2)NC(=O)NC1=O` [Example 80, (S)-5-cyclopropyl-5-(3-(5,6-dichloroisoindolin-2-yl-1,1,3,3-d4)-3-oxopropyl)imidazolidine-2,4-dione], the values for the IC50 in experiment [1] and in experiment [2] were 0.028 µM and 0.032 µM, respectively. The molecule further showed an inhibition at 2 µM in experiment [4] of 30%. The molecule further returned an inhibition at 20 µM in experiment [4] of 73%.
On to `Cc1nc(C2(CCC(=O)N3Cc4cc(Cl)c(C(F)(F)F)cc4C3)NC(=O)NC2=O)co1` (stereo not drawn) [Example 81, 5-(3-(5-chloro-6-(trifluoromethyl)isoindolin-2-yl)-3-oxopropyl)-5-(2-methyloxazol-4-yl)imidazolidine-2,4-dione], for which the results for the IC50 in experiment [1], in experiment [2] and in experiment [3] were 0.26 µM, 0.077 µM and 0.12 µM, respectively.
